In brackets after ≈: the same amount, converted by molar mass. Like-named read-outs stand apart in the source and are kept apart here.
What was measured:
[1] = Peroxynitrite-carbonate radical scavenging assay (DHR probe); settings: for IC50: Sin-1, 37° C., 8 minutes, read-out: IC50, inhibition of oxidation of DHR probe (peroxynitrite-carbonate scavenging); for Uric Acid Equivalents: relative to uric acid
Experimental: Inflammatory conditions are characterized by increasing concentrations of reactive oxygen species. In this study, the ability of Compound 1 to specifically scavenge peroxynitrite-carbonate radicals was determined.
To the first column of a 96-well PCR plate (0.2 mL volume) was added 160 μL of TCWS. One well of the first column would equal one IC50 determination. Typically, test compounds were assayed in duplicate, i.e. two wells of column 1 were filled with each TCWS. To the remaining wells in columns 2-11 was added 80 μL of DWS. Using a multichannel pipettor, column 1 was serially diluted in 2-fold dilutions by removing 80 μL from column 1 and transferring with mixing to column 2. Column 2 was then diluted to column 3 and so on until column 11 where 80 μL of the diluted mixture was removed and discarded. At least 2 wells of row 12 were designated as the 0 test compound control to which 80 μL of DWS was added. One well of row 12 per test compound was designated as the background control to which 80 μL of the TCWS was added.
(§1) The plate was covered and incubated for 5 minutes at 37° C. upon which the reaction was initiated by addition of 20 μL of Sin-1 to columns 1-11 using a multichannel pipettor with mixing. The reaction was initiated similarly to the 0 test compound wells of column 12. To the background control wells was added 20 μL of PC buffer. The plate was incubated at 37° C. for 8 minutes (the reaction is linear for 10 minutes) and quenched by addition of 50 μL of AA to all wells with mixing. The plate was placed on ice for 5 minutes. Quenched assay mixtures were stable at room temperature for at least 24 hours.
Each reaction mixture (20 μL) was analyzed for rhodamine 123 product by HPLC using a Phenomenex Luna C18(2) column, 3 um, 4.6×50 mm using an A buffer of water+0.1% TFA and a B buffer of acetonitrile+0.1% TFA and the following gradient method: […]
The absorbance at 280 nm was also recorded to ensure no co-elution of test compound peaks.
Initial examination of the background control samples at the highest test compound concentration were performed to ensure no co-elution of test compound peaks with the product rhodamine 123 at 4 minutes. If co-elution was observed, the compound was not tested until an appropriate HPLC method was developed to separate the product and test compound peaks. The rhodamine 123 AUC was then determined for each test compound concentration and the percent inhibition of rhodamine 123 fluorescence was then determined by the following equation:
% Inhibition=[(AUCo−AUCx)/AUCo]*100
Where AUCo is the AUC of the rhodamine 123 peak at 0 test compound concentration and AUCX is the AUC of the rhodamine 123 peak at each test compound concentration=x.
The standard error of the curve fit for the IC50 was also determined along with the Hill slope. The IC50 determined for uric acid was divided by the IC50 determined for each test compound to generate Uric Acid Equivalents, a measure of the peroxynitrite-carbonate radical scavenging ability relative to uric acid.
Uric Acid Equivalents=[…]

[2] = Alkylperoxy radical scavenging assay (AIPH, AE-Trolox oxidation); settings: for IC50: 5 mM AIPH, 37° C., 8 minutes, read-out: IC50, inhibition of AE-Trolox oxidation (alkylperoxy radical scavenging); for Percent Trolox Activity / Trolox Equivalents: relative to Trolox
Experimental: In a separate assay, alkylperoxy radicals were generated in vitro using the radical generator AIPH (2,2′-azobis-[2-(2-imidazolyn-2-yl)-propane) and the ability of tetracyclines to scavenge these radicals was determined. […] Also, the ability of Compound 1 and minocycline to specifically scavenge peroxynitrite-carbonate radicals was determined.
In this study, alkylperoxy radicals were generated in vitro using the radical generator AIPH (2,2′-azobis-[2-(2-imidazolyn-2-yl)-propane) and the ability of tetracyclines, such as Compound 1, to scavenge these radicals was determined.
Trolox is a known scavenger of peroxyradicals. Structurally similar to a-tocopherol, Trolox reacts with peroxyradicals via a known mechanism with linear kinetics under excess oxygen conditions. In the presence of a competing antioxidant compound, the rate of Trolox oxidation will change based on the relative rate of oxidation and concentration of the competing antioxidant compound (Huang, et al., J. Agric. Food Chem. 2005, 25, 1841-1856). By measuring the effect of antioxidant concentration on the rate of degradation of Trolox, the relative antioxidant capacity of a compound can be determined. This principle is the basis of the widely used antioxidant capacity assay, ORAC (Huang, et al., J. Agric. Food Chem. 2002, 50, 1815-1821). Unlike ORAC which uses a fluorescent dye indicator, the assay described here directly measures the oxidation of the Trolox derivative, 2-aminoethyl-Trolox (AE-Trolox). This method eliminates interference of the fluorescent dye reaction by tetracycline compounds.
To the first column of a 96-well PCR plate (0.2 mL volume) was added 160 μL of TCWS. One well of the first column would equal one IC50 determination. […] To the remaining wells in columns 2-11 was added 80 μL of AET-WS. Using a multichannel pipettor, column 1 was serially diluted in 2-fold dilutions by removing 80 μL from column 1 and transferring with mixing to column 2. Column 2 was then diluted to column 3 and so on until column 11 where 80 μL of the diluted mixture was removed and discarded. Four wells of row 12 were designated as the 0 test compound/0 AIPH control to which 80 μL of AET-WS was added. One well of row 12 per test compound was designated as the 0 test compound control to which 80 μL of the AET-WS was added.
as §1, with “AIPH” for “Sin-1”, “0 test compound/0 AIPH” for “background”, “PB” for “PC”
Each reaction mixture was analyzed for AE-Trolox by 2D-LCMS on a Shimadzu 2010 equipped with a loading column (Shim-pack MAYI-ODS, 4.6×10 mm) and a gradient column Phenomenex Luna C18(2) column, 3 um, 4.6×50 mm. Using an automated 2-position swithching valve, samples were loaded onto the loading column by Pump C and washed for 1 minute with loading buffer. At 1 minute, the valve was switched to elution position (Position B, reversed flow through loading column) and the samples were eluted through the gradient column. The loading buffer (Buffer C) was 10% acetonitrile in water with 0.2% formic acid and the gradient buffers were water+0.2% formic acid (A buffer) and acetonitrile+0.2% formic acid (B buffer). Typical injection volumes were 30 μL.
From the TIC integration of AE-Trolox and AE-Trolox-d4, a ratio was calculated:
Ratio=AUCAE-Trolox/AUCAE-Trolox-d4
Percent inhibition of AE-Trolox oxidation (measured as disappearance of AE-Trolox) was then determined by:
% Inhibition=[1−((Ratio0−Ratiox)/(Ratioo−Ratiof))]*100

E. coli = assay: Antibacterial activity, E. coli MIC; assay type: cell-based; settings: Escherichia coli; Table 8
MS = settings: cited from earlier work; for % lesion reduction: gadolinium-enhancing MRI lesions
[3] = system: animal models of MS and neuroprotection; assay: Accepted animal models of MS and neuroprotection (Table 2); set-up: concentration or dose not given beside the values; settings: in vivo

Question: What does the source list for `CN(C)[C@@H]1C(O)=C(C(N)=O)C(=O)[C@@]2(O)C(O)=C3C(=O)c4c(O)cccc4C[C@H]3C[C@@H]12` [Sancycline, sancycline]?
Answer: IC50 [1]: 66.4 µM; Uric Acid Equivalents [1]: 0.19; IC50 [2]: 369 µM; Percent Trolox Activity [2]: 2%; Trolox Equivalents [2]: 0.02

Question: Which results are given for `O=c1[nH]c(=O)c2[nH]c(=O)[nH]c2[nH]1` [Uric acid]?
Answer: IC50 [1]: 12.4 µM; Uric Acid Equivalents [1]: 1

Question: With `C[C@H]1c2cccc(O)c2C(=O)C2=C(O)[C@]3(O)C(=O)C(C(N)=O)=C(O)[C@@H](N(C)C)[C@@H]3[C@@H](O)[C@@H]21` [Doxycycline, doxycycline] as the molecule, how does the MIC (E. coli) read?
Answer: The MIC was 0.5 µg/mL (≈ 1.13 µM).

Question: For `C/C(O)=C(\C#N)C(=O)Nc1ccc(C(F)(F)F)cc1` [Teriflunomid], which “% Relapses eduction” value (MS; MS clinical studies) is on record?
Answer: The value was 30%.

Question: And the potential side effects (MS; MS clinical studies)?
Answer: Its potential side effects is “Mild infections, Fatigue,”.

Question: And the “% lesion reduction” value (MS; MS clinical studies)?
Answer: The value was 44%.

Question: Which results are given for `CCCCCCCCc1ccc(CCC(N)(CO)CO)cc1` [Fingolimod, 2-amino-2-[2-(4-octylphenyl)ethyl]propane-1,3-diol]?
Answer: % Inhibition Axon Loss [3]: 60%; % Inhibition Clinical Score [3]: 89%; % Inhibition Demyelination [3]: 69%; % Inhibition Inflammation [3]: 59%; % Relapses eduction (MS; MS clinical studies): 54%; potential side effects (MS; MS clinical studies): Infections, cancer, cardiac; % lesion reduction (MS; MS clinical studies): 30%

Question: Which results are given for `COC(=O)/C=C/C(=O)OC` [BG-12]?
Answer: % Relapses eduction (MS; MS clinical studies): 32%; potential side effects (MS; MS clinical studies): Flushing; % lesion reduction (MS; MS clinical studies): 69%

Question: With `Cc1c(C)c2c(c(C)c1O)CCC(C)(C(=O)O)O2` (centres unmarked) [Trolox] as the molecule, how does the IC50 [2] read?
Answer: Its IC50 is 9 µM.

Question: What about the “Percent Trolox Activity” value [2] of the same molecule?
Answer: Its value is 100%.

Question: What about the “Trolox Equivalents” value [2] of the same molecule?
Answer: Its value is 1.00.

Question: Which “% Relapses eduction” value (MS; MS clinical studies) does the source give for `CCN(C(=O)c1c(O)c2c(Cl)cccc2n(C)c1=O)c1ccccc1` [Laquinimod] here?
Answer: Its value is 21%.

Question: What about the potential side effects (MS; MS clinical studies) of the same molecule?
Answer: The potential side effects was “Increase in liver enzymes”.

Question: And the “% lesion reduction” value (MS; MS clinical studies)?
Answer: The value was 40%.

Question: Which results are given for Glatiramer [COPAXONE ®]?
Answer: % Inhibition Clinical Score [3]: 75%; % Inhibition Demyelination [3]: 74%; % Relapses eduction (MS; MS clinical studies): 30%; % lesion reduction (MS; MS clinical studies): 65%; potential side effects (MS; human, in vivo): Infection, shaking hands,

Question: What does the source list for Natalizumab [TYSABRI ®]?
Answer: % Relapses eduction (MS; MS clinical studies): 68%; potential side effects (MS; MS clinical studies): Liver damage, fatigue, fatal; % lesion reduction (MS; MS clinical studies): 83%
